Assay in all cases: AK assay 384-well format, Prestwick library screening
For one test, the system named is P. aeruginosa. It is filed as cell-based, Pseudomonas aeruginosa. The note with it: 50 μM final drug concentration; for fold induction at 50 µM: Pseudomonas aeruginosa, 3 h.
Another test deals with K. pneumoniae. It is filed as cell-based, Klebsiella pneumoniae. To be noted: 50 μM final drug concentration; for fold induction at 50 µM: Klebsiella pneumoniae, 3 h.
The test system of a further test is E. cloacae. The test is classed as cell-based, Enterobacter cloacae. The note with it: 50 μM final drug concentration; for fold induction at 50 µM: Enterobacter cloacae, 3 h.
In test [1] the test system is A. baumannii strain 98-37-09. The test is classed as cell-based, Acinetobacter baumannii. To be noted: 50 μM final drug concentration; for fold induction at 50 µM: Acinetobacter baumannii, 983709, 3 h.
The next test deals with E. faecium. It is filed as cell-based, Enterococcus faecium. To be noted: 50 μM final drug concentration; for fold induction at 50 µM: Enterococcus faecium, 3 h.
The test system of the next test is E. coli. The test is classed as cell-based, Escherichia coli. To be noted: 50 μM final drug concentration; for fold induction at 50 µM: Escherichia coli, 3 h.
In test [2] the test system is S. aureus strain USA300-0114. It is filed as cell-based, Staphylococcus aureus. To be noted: 50 μM final drug concentration; for fold induction at 50 µM: Staphylococcus aureus, USA300, 3 h.

This note sets out measurements from US10004701B2, “Methods and compositions for treating infection” (UNIVERSITY OF ROCHESTER, priority 2012, dated 2018).

Where a name gives a salt, the structure may show the parent alone. Read-outs that look alike come from different tables or passages of the source.

Take `CCN1C[C@]2(COC)[C@H](O)C[C@H](OC)[C@@]34[C@@H]5C[C@@]6(O)[C@H](OC(=O)c7ccccc7)[C@@H]5[C@@](OC(C)=O)([C@@H]([C@H](OC)[C@H]23)[C@@H]14)[C@@H](O)[C@@H]6OC` [Aconitine]: the fold induction at 50 µM came to 0.5 in the test on P. aeruginosa (planktonic P. aeruginosa, […], read-out: AK-based Prestwick Library Screening Results, P. aeruginosa (increase in extracellular AK activity)); 0.5 with K. pneumoniae (planktonic K. pneumoniae, […], read-out: AK-based Prestwick Library Screening Results, K. pneumoniae (increase in extracellular AK activity)); 0.6 in the test with E. cloacae (planktonic E. cloacae, […], read-out: AK-based Prestwick Library Screening Results, E. cloacae (increase in extracellular AK activity)); 0.6 in test [1] (planktonic A. baumannii, […], read-out: AK-based Prestwick Library Screening Results, A. baumannii (increase in extracellular AK activity)); 0.9 in the test on E. faecium (planktonic E. faecium, […], read-out: AK-based Prestwick Library Screening Results, E. faecium (increase in extracellular AK activity)); 0.6 in the test on E. coli (planktonic E. coli, […], read-out: AK-based Prestwick Library Screening Results, E. coli (increase in extracellular AK activity)). In test [2] (planktonic S. aureus, […], read-out: AK-based Prestwick Library Screening Results, S. aureus (increase in extracellular AK activity)), the fold induction at 50 µM was 0.5.
Regarding `CN1CC[C@]23c4ccccc4N[C@H]1[C@]21CCN(C)[C@H]3Nc2ccccc21` [Calycanthine], in the test with P. aeruginosa (planktonic P. aeruginosa, […]), the “AK-based Prestwick Library Screening Results, P. aeruginosa (increase in extracellular AK activity)” value is listed as 0.8. Also, in the test with K. pneumoniae (planktonic K. pneumoniae, […]), the “AK-based Prestwick Library Screening Results, K. pneumoniae (increase in extracellular AK activity)” value was 0.7. In addition, the “AK-based Prestwick Library Screening Results, E. cloacae (increase in extracellular AK activity)” value with E. cloacae (planktonic E. cloacae, […]) was found to be 1.2. Also, the “AK-based Prestwick Library Screening Results, A. baumannii (increase in extracellular AK activity)” value in test [1] (planktonic A. baumannii, […]) was 0.8. In addition, the “AK-based Prestwick Library Screening Results, E. faecium (increase in extracellular AK activity)” value in the test with E. faecium (planktonic E. faecium, […]) was determined as 0.8. Moreover, the “AK-based Prestwick Library Screening Results, E. coli (increase in extracellular AK activity)” value with E. coli (planktonic E. coli, […]) is listed as 0.9. The “AK-based Prestwick Library Screening Results, S. aureus (increase in extracellular AK activity)” value in test [2] (planktonic S. aureus, […]) came to 0.6.
Consider `c1ccc(CC2=NCCN2)cc1` [Tolazoline hydrochloride], for which the fold induction at 50 µM is 1.1 in the test with P. aeruginosa (planktonic P. aeruginosa, 384-well, cutoff for positive-scoring molecules 3-fold increase, read-out: AK-based Prestwick Library Screening Results: P. aeruginosa (increase in extracellular AK activity)); 1 in the test with K. pneumoniae (planktonic K. pneumoniae, 384-well, cutoff for positive-scoring molecules 3-fold increase, read-out: AK-based Prestwick Library Screening Results: K. pneumoniae (increase in extracellular AK activity)); 1.5 with E. cloacae (planktonic E. cloacae, 384-well, cutoff for positive-scoring molecules 3-fold increase, read-out: AK-based Prestwick Library Screening Results: E. cloacae (increase in extracellular AK activity)); 1.3 in test [1] (planktonic A. baumannii, 384-well, cutoff for positive-scoring molecules 3-fold increase, read-out: AK-based Prestwick Library Screening Results: A. baumannii (increase in extracellular AK activity)); 1 with E. faecium (planktonic E. faecium, 384-well, cutoff for positive-scoring molecules 3-fold increase, read-out: AK-based Prestwick Library Screening Results: E. faecium (increase in extracellular AK activity)); 1.4 in the test with E. coli (planktonic E. coli, 384-well, cutoff for positive-scoring molecules 3-fold increase, read-out: AK-based Prestwick Library Screening Results: E. coli (increase in extracellular AK activity)). For the same compound, the fold induction at 50 µM in test [2] (planktonic S. aureus, 384-well, cutoff for positive-scoring molecules 3-fold increase, read-out: AK-based Prestwick Library Screening Results: S. aureus (increase in extracellular AK activity)) came to 1.2.
`CN1CCN2c3ccccc3Cc3ccccc3C2C1` (stereo not shown) [Mianserine hydrochloride]: the fold induction at 50 µM in the test with P. aeruginosa (384-well format, cutoff for positive-scoring molecules 3-fold increase, read-out: AK-based Prestwick Library Screening Results, P. aeruginosa (increase in extracellular AK activity)) was 0.8; in the test with K. pneumoniae (384-well format, cutoff for positive-scoring molecules 3-fold increase, read-out: AK-based Prestwick Library Screening Results, K. pneumoniae (increase in extracellular AK activity)), 0.6; in the test on E. cloacae (384-well format, cutoff for positive-scoring molecules 3-fold increase, read-out: AK-based Prestwick Library Screening Results, E. cloacae (increase in extracellular AK activity)) it was 0.7; in test [1] (384-well format, cutoff for positive-scoring molecules 3-fold increase, read-out: AK-based Prestwick Library Screening Results, A. baumannii (increase in extracellular AK activity)), 0.8; in the test on E. faecium (384-well format, cutoff for positive-scoring molecules 3-fold increase, read-out: AK-based Prestwick Library Screening Results, E. faecium (increase in extracellular AK activity)) it was 0.9; with E. coli (384-well format, cutoff for positive-scoring molecules 3-fold increase, read-out: AK-based Prestwick Library Screening Results, E. coli (increase in extracellular AK activity)) it was 0.7. The fold induction at 50 µM in test [2] (384-well format, cutoff for positive-scoring molecules 3-fold increase, read-out: AK-based Prestwick Library Screening Results, S. aureus (increase in extracellular AK activity)) worked out at 0.7.
Take `CCc1cccc(CC)c1NC(=O)CN(CC(=O)O)CC(=O)O` [Etifenin]: the fold induction at 50 µM with P. aeruginosa (planktonic P. aeruginosa, cutoff for positive-scoring molecules 3-fold increase, read-out: AK-based Prestwick Library Screening Results, P. aeruginosa (increase in extracellular AK activity)) came to 0.9; in the test on K. pneumoniae (planktonic K. pneumoniae, cutoff for positive-scoring molecules 3-fold increase, read-out: AK-based Prestwick Library Screening Results, K. pneumoniae (increase in extracellular AK activity)), 0.8; in the test with E. cloacae (planktonic E. cloacae, cutoff for positive-scoring molecules 3-fold increase, read-out: AK-based Prestwick Library Screening Results, E. cloacae (increase in extracellular AK activity)) it was 1; in test [1] (planktonic A. baumannii, cutoff for positive-scoring molecules 3-fold increase, read-out: AK-based Prestwick Library Screening Results, A. baumannii (increase in extracellular AK activity)), 0.9; in the test on E. faecium (planktonic E. faecium, cutoff for positive-scoring molecules 3-fold increase, read-out: AK-based Prestwick Library Screening Results, E. faecium (increase in extracellular AK activity)) it was 0.9; with E. coli (planktonic E. coli, cutoff for positive-scoring molecules 3-fold increase, read-out: AK-based Prestwick Library Screening Results, E. coli (increase in extracellular AK activity)), 1.1. In addition, in test [2] (planktonic S. aureus, cutoff for positive-scoring molecules 3-fold increase, read-out: AK-based Prestwick Library Screening Results, S. aureus (increase in extracellular AK activity)), the fold induction at 50 µM was 0.5.
Regarding `Cc1c(Nc2ncccc2C(=O)O)cccc1C(F)(F)F` [Flunixin meglumine], the fold induction at 50 µM with P. aeruginosa (planktonic, […], read-out: AK-based Prestwick Library Screening Results, P. aeruginosa (fold increase in extracellular AK activity)) was 0.6; with K. pneumoniae (planktonic, […], read-out: AK-based Prestwick Library Screening Results, K. pneumoniae (fold increase in extracellular AK activity)), 0.5; in the test on E. cloacae (planktonic, […], read-out: AK-based Prestwick Library Screening Results, E. cloacae (fold increase in extracellular AK activity)) it was 1; in test [1] (planktonic, […], read-out: AK-based Prestwick Library Screening Results, A. baumannii (fold increase in extracellular AK activity)) it was 0.5; with E. faecium (planktonic, […], read-out: AK-based Prestwick Library Screening Results, E. faecium (fold increase in extracellular AK activity)) it was 0.6; in the test with E. coli (planktonic, […], read-out: AK-based Prestwick Library Screening Results, E. coli (fold increase in extracellular AK activity)), 0.6. The fold induction at 50 µM in test [2] (planktonic, […], read-out: AK-based Prestwick Library Screening Results, S. aureus (fold increase in extracellular AK activity)) came to 0.5.
Turning to `CC(=O)OCC(=O)[C@H]1CC[C@H]2[C@@H]3CC[C@H]4C[C@H](O)CC[C@]4(C)[C@H]3C(=O)C[C@]12C` [Alfadolone acetate], the fold induction at 50 µM is 1 with P. aeruginosa (planktonic P. aeruginosa, […], read-out: AK-based Prestwick library screening result, P. aeruginosa (fold increase in extracellular AK activity)); 0.9 in the test with K. pneumoniae (planktonic K. pneumoniae, […], read-out: AK-based Prestwick library screening result, K. pneumoniae (fold increase in extracellular AK activity)); 1.4 in the test with E. cloacae (planktonic E. cloacae, […], read-out: AK-based Prestwick library screening result, E. cloacae (fold increase in extracellular AK activity)); 1 in test [1] (planktonic A. baumannii, […], read-out: AK-based Prestwick library screening result, A. baumannii (fold increase in extracellular AK activity)); 1.1 in the test with E. faecium (planktonic E. faecium, […], read-out: AK-based Prestwick library screening result, E. faecium (fold increase in extracellular AK activity)); 1.2 in the test with E. coli (planktonic E. coli, […], read-out: AK-based Prestwick library screening result, E. coli (fold increase in extracellular AK activity)). Further, the fold induction at 50 µM in test [2] (planktonic S. aureus, […], read-out: AK-based Prestwick library screening result, S. aureus (fold increase in extracellular AK activity)) was determined as 1.
